According to publication PMC12278462, “Site-selective arylations of nature-inspired flavonoids or steroidal phenols via C—H or O—H activation” (Journal of Enzyme Inhibition and Medicinal Chemistry, 2025):
Read-outs that look alike come from different tables or passages of the source.

Legend:
MCF-7dox = test system: MCF-7dox; design: method as in PMID 21912610, PMID 28436164; settings: MCF-7 adapted to doxorubicin; cited from earlier work
MDA-MB-231 [1] = test system: MDA-MB-231; design: method as in PMID 21912610, PMID 28436164; settings: cited from earlier work
SiHa = assay: MTT antiproliferative assay, SiHa; format: cell-based, human; settings: Homo sapiens, SiHa, 72 h; for IC50: read-out: calculated IC50 SiHa
Method: (§1) We evaluated the cytotoxic activity of the newly synthesised arylated compounds 13–17 by the MTT assay[37] on a panel of human adherent cancer cell lines. The panel included breast (MCF-7 and MDA MB-231) and cervical (HeLa, SiHa and C33A) cancer cell lines differing in receptorial or HPV status. Tumour selectivity was determined on the NIH/3T3 mouse fibroblast cell line.
(§2) Briefly, the panels of breast and cervical cancerous cell lines, differing by their receptorial and HPV status were used, precisely MCF-7 (ER, PR and HER2 positive) and MDA-MB-231 (TNBC) breast carcinoma and HeLa (HPV18+), SiHa (HPV16+), C33A (HPV-) cervical carcinoma cells. Non-cancerous NIH/3T3 mouse fibroblast cell line was used for selectivity study. MCF-7, MDA-MB-231, Hela and NIH/3T3 cell lines were purchased from ECACC (European Collection of Cell Cultures, Salisbury, UK), while SiHa and C33A from ATCC (American Tissue Culture Collection, LGC Standards GmbH, Wesel, Germany). Cells were maintained in Eagle's Minimum Essential Medium (EMEM, Capricorn Scientific GmbH, Ebsdorfergrund, Germany) supplemented with 10% heat-inactivated fetal bovine serum (FBS), 1% non-essential amino acids (NEAA), and 1% antibiotic-antimycotic mixture (penicillin–streptomycin). The cells were maintained at 37 °C in a humidified atmosphere containing 5% CO2.
(§3) For measurements cells were seeded for 96-well plates at a density of 5 000/well, except for C33A, which was seeded in 10 000cells for each well. After overnight standing cells were treated with 10 and 30 µM solutions for screening and increasing concentrations (0.1-30.0 µM) of the test compounds were used for concentration-response curves. After incubation for 72 hours under cell culturing condition 5 mg/ml MTT (3-(4,5-[…])-2,5-diphenyl-2H-tetrazolium bromide) solution was added for another 4 h. The precipitated formazan crystals were solubilized in DMSO and the absorbance was measured at 545 nm with a microplate reader (BMG Labtech, Ortenberg, Germany). Wells with untreated cells were utilized as control, and inhibition % were calculated by GraphPad Prism v 9.0 software (GraphPad Software, San Diego, CA, USA). If the growth-inhibition exceeded 70% at 30 µM concentration during the screening concentration-response curves were fitted and IC50 values were calculated by GraphPad Prism v 9.0. The experiments were performed with five parallel wells for each experimental condition and repeated at least twice.

[2] = test system: NIH/3T3 mouse fibroblast cell line; assay: MTT assay, tumour selectivity on non-cancerous fibroblasts; format: cell-based; settings: Mus musculus; for inhibition at 10 µM: NIH3T3, 10 µM; for inhibition at 10 µM / inhibition at 30 µM: 72 h; for inhibition at 30 µM: NIH3T3, 30 µM; for IC50: NIH3T3, 72 h, read-out: calculated IC50 NIH/3T3
Method: as §1, §2, §3

MCF-7 = assay: MTT antiproliferative assay, MCF-7; format: cell-based, human; settings: Homo sapiens; for inhibition at 10 µM: MCF7, 10 µM; for inhibition at 10 µM / inhibition at 30 µM: 72 h; for inhibition at 30 µM: MCF7, 30 µM; for IC50: MCF7, 72 h, read-out: calculated IC50 MCF-7
Method: as §1, §2, §3

MDA-MB-231 [3] = assay: MTT antiproliferative assay, MDA-MB-231; format: cell-based, human; settings: Homo sapiens; for inhibition at 10 µM: MDA-MB-231, 10 µM; for inhibition at 10 µM / inhibition at 30 µM: 72 h; for inhibition at 30 µM: MDA-MB-231, 30 µM; for IC50: MDA-MB-231, 72 h, read-out: calculated IC50 MDA-MB-231
Method: as §1, §2, §3

C33A = assay: MTT antiproliferative assay, C33A; format: cell-based, human; settings: Homo sapiens, C-33-A, 72 h; for IC50: read-out: calculated IC50 C33A
Method: as §1, §2, §3

HeLa = assay: MTT antiproliferative assay, HeLa; format: cell-based, human; settings: Homo sapiens, HeLa, 72 h; for IC50: read-out: calculated IC50 HeLa
Method: as §1, §2, §3

HeLa cells [4] = assay: Cell cycle analysis by flow cytometry (propidium iodide); format: cell-based, human; settings: 24 and 48 h
Method: To determine the cellular DNA content of the cells, flow cytometry analysis after propidium-iodide labeling was performed. Propidium iodide is a nuclear dye intercalating between the base pairs in DNA without sequence preference. Therefore, the cells' total emitted fluorescence will depend on each cell's DNA content, which varies depending on the cell cycle phase.
Hela cells were seeded into 12-well plates at 200,000 cells/well density for the cell cycle analysis. Cells were incubated overnight prior to the treatment, then treated with 1, 2, and 3 µM solutions of 14c compound for 24 h and 48 hours. After incubation, cells were washed twice with phosphate-buffered saline (PBS) and harvested. After centrifugation at 1200 rpm, for 7 minutes, cells were washed again with 300 µl PBS and fixed in 500 µl cold 70% ethanol. Samples were stained in 300 µl dye solution containing RNaseA, TritonX-100, sodium citrate, and 0.1 mg/ml-PI in distilled water. The suspension was incubated for 20 minutes in the dark at room temperature. Cells were measured by CytoFLEX flow cytometer, recorded by CytExpert Software (Beckman Coulter INC, Brea, CA, USA). In each analysis, 20,000 events were recorded inside the FSC/SSC gate, and the percentages of the cells in the different phases of the cell cycle were determined and analyzed using ModFit LT 6.0 software.

HeLa cells [5] = assay: Mitochondrial membrane potential assay (JC-10, flow cytometry); format: cell-based, human; settings: 24 h
From the text: JC-10 dye was used to investigate the changes in the mitochondrial membrane potential. JC-10 is a cationic dye that can pass through the cell membrane and accumulate in healthy mitochondria by forming reversible red-fluorescent aggregates. In addition, changes in membrane potential result in the failure to retain the aggregates. Therefore, the dye returns to the cytosol in green monomeric form. Mitochondrial changes may be detected by measuring the green and red fluorescent signals together.
Hela cells were seeded into 12-well plates at 200,000 cells/well density and incubated overnight. Cells were treated with 1 and 2 µM of 17c for 24 h and 10 µM of CCCP as reference compound ^S1. After the incubation, cells were collected and centrifuged at 1100 rpm for 6 minutes, then washed with PBS. After centrifugation, 300 µl dye solution (20 µM JC-10 final concentration) was added to the pellet. After 5 min incubation, cells were measured by CytoFLEX flow cytometer, recorded by CytExpert Software (Beckman Coulter INC, Brea, CA, USA) reading of red and green fluorescence on 525 and 585 channels.

[6] = test system: human adherent cancer cell lines (HeLa, SiHa, C33A, MCF-7 and MDA-MB-231); assay: MTT assay, whole panel of cell lines; format: cell-based
Method: as §1, §2, §3

O=C1C=CC(O)(c2cc(=O)c3cc(-c4ccccc4)ccc3o2)C=C1 [compound 11]
IC50 (MCF-7dox): 1.23 µM

O=C1C=CC(O)(c2cc(=O)c3c(O)cc(O)cc3o2)C=C1 [compound 9, Protoapigenone]
IC50 (MDA-MB-231 [1]): 1.35 µM

CCCCOC1(c2cc(=O)c3c(O)cc(O)cc3o2)C=CC(=O)C=C1 [compound 10, 1′-O-butyl protoapigenone, reference compound]
inhibition at 10 µM (SiHa): 92.2% | inhibition at 30 µM (SiHa): 96.3% | IC50 (SiHa): 1.6 µM | inhibition at 10 µM [2]: 95.5% | inhibition at 30 µM [2]: 99.1% | IC50 [2]: 2.27 µM | inhibition at 10 µM (MCF-7): 87.7% | inhibition at 30 µM (MCF-7): 93.3% | IC50 (MCF-7): 3.03 µM | IC50 (MDA-MB-231 [1]): 0.62 µM | inhibition at 10 µM (MDA-MB-231 [3]): 91.7% | inhibition at 30 µM (MDA-MB-231 [3]): 92.8% | IC50 (MDA-MB-231 [3]): 1.06 µM | inhibition at 10 µM (C33A): 98% | inhibition at 30 µM (C33A): 98.5% | IC50 (C33A): 0.97 µM | inhibition at 10 µM (HeLa): 95.7% | inhibition at 30 µM (HeLa): 96.2% | IC50 (HeLa): 1.43 µM

CCCCOC1(c2cc(=O)c3c(Oc4ccc(C(C)(C)C)cc4)cc(O)cc3o2)C=CC(=O)C=C1 [17c, 2-(1-Butoxy-4-oxocyclohexa-2,5-dienyl)-5-(4-tert-butylphenoxy)-7-hydroxy-chromen-4-one]
inhibition at 10 µM (SiHa): 89.8% | inhibition at 30 µM (SiHa): 96.2% | IC50 (SiHa): 0.64 µM | inhibition at 10 µM [2]: 92.7% | inhibition at 30 µM [2]: 99% | IC50 [2]: 0.93 µM | inhibition at 10 µM (MCF-7): 98.5% | inhibition at 30 µM (MCF-7): 98.9% | IC50 (MCF-7): 0.6 µM | inhibition at 10 µM (MDA-MB-231 [3]): 98.3% | inhibition at 30 µM (MDA-MB-231 [3]): 97% | IC50 (MDA-MB-231 [3]): 0.42 µM | subG1 phase (HeLa cells [4]): substantial subG1 phase elevation | proportion of the cells at G2/M phase (HeLa cells [4]; concentration-dependent): significantly increases | inhibition at 10 µM (C33A): 97.9% | inhibition at 30 µM (C33A): 97.9% | IC50 (C33A): 0.39 µM | number of mitochondrial membrane-disrupted cells (HeLa cells [5]; 1 and 2 µM, vs untreated controls): significantly increased | effect on mitochondrial membrane potential compared with reference agent CCCP (HeLa cells [5]; CCCP 10 µM): more substantial than that of the applied reference agent CCCP | IC50 ([6]; Homo sapiens, MTT, 72 h, range across cell lines, read-out: IC50 range over the investigated cell lines): 0.39 to 0.64 µM | times stronger activity than parent compound 10 ([6]; ratio of IC50 values, all investigated cell lines): 2.5–5 times | inhibition at 10 µM (HeLa): 98% | inhibition at 30 µM (HeLa): 98% | IC50 (HeLa): 0.47 µM
